Assay results taken from patent US6605145B1, “Alkylformamide surfactants” (Air Products and Chemicals, Inc., priority 1999, dated 2003).
Each block holds one compound with its values, some of them ahead of it.

How the values were obtained:
Type in all cases: physicochemical
[1] = Dynamic surface tension of aqueous solutions, maximum bubble pressure method
Source text: where R is a C5 to C11 alkyl group, provided that the organic compound is not an azole derivative fungicide. […] The maximum-bubble-pressure method of measuring surface tension is described in Langmuir 1986, 2, 428-432, which is incorporated by reference.
In the following Examples dynamic surface tension data were obtained for aqueous solutions of various compounds using the maximum bubble pressure method at bubble rates from 0.1 bubbles/second (b/s) to 20 b/s. […] In practical terms, high bubble rates correspond to high printing speeds in lithographic printing, high spray or roller velocities in coating applications, and rapid application rates for agricultural products.

[2] = Solubility limit in water from plot of ln(conc.) vs surface tension at 0.1 b/s
Source text: A plot of In(conc.) vs surface tension observed at 0.1 b/s was used to determine that the solubility limit of this material is 0.1 wt %.

[3] = Foam test based upon ASTM D 1173-53
Protocol: The foaming properties of 0.1 wt % solutions of the N-octylpyrrolidone and the alkylformamide surfactants of this invention were examined using a procedure based upon ASTM D 1173-53. In this test, a 0.1 wt % solution of the surfactant is added from an elevated foam pipette to a foam receiver containing the same solution. The foam height is measured at the completion of the addition (“Initial Foam Height”) and the time required for the foam to dissipate at the air-liquid interface (“Time to 0 Foam”) is recorded. This test provides a comparison between the foaming characteristics of various surfactant solutions. In general, in coatings, inks, and agricultural formulations, foam is undesirable because it complicates handling and can lead to coating and print defects, and to inefficient application of agricultural materials.

Dynamic Surface Tension ([1]; 0.03 wt % in water, 0.1 b/s): 42.8 dyne/cm
Dynamic Surface Tension ([1]; 0.03 wt % in water, 1 b/s): 46.1 dyne/cm
Dynamic Surface Tension ([1]; 0.03 wt % in water, 6 b/s): 52.2 dyne/cm
Dynamic Surface Tension ([1]; 0.03 wt % in water, 15 b/s): 58.5 dyne/cm
Dynamic Surface Tension ([1]; 0.03 wt % in water, 20 b/s): 60.4 dyne/cm
Dynamic Surface Tension ([1]; 0.05 wt % in water, 0.1 b/s): 35.6 dyne/cm
Dynamic Surface Tension ([1]; 0.05 wt % in water, 1 b/s): 37.7 dyne/cm
Dynamic Surface Tension ([1]; 0.05 wt % in water, 6 b/s): 42.5 dyne/cm
Dynamic Surface Tension ([1]; 0.05 wt % in water, 15 b/s): 48.6 dyne/cm
Dynamic Surface Tension ([1]; 0.05 wt % in water, 20 b/s): 50.5 dyne/cm
Dynamic Surface Tension ([1]; 0.07 wt % in water, 0.1 b/s): 30.9 dyne/cm
Dynamic Surface Tension ([1]; 0.07 wt % in water, 1 b/s): 32.5 dyne/cm
Dynamic Surface Tension ([1]; 0.07 wt % in water, 6 b/s): 36.3 dyne/cm
Dynamic Surface Tension ([1]; 0.07 wt % in water, 15 b/s): 41.5 dyne/cm
Dynamic Surface Tension ([1]; 0.07 wt % in water, 20 b/s): 43.7 dyne/cm
Dynamic Surface Tension ([1]; 0.1 wt % in water, 1 b/s): 26.6 dyne/cm
Dynamic Surface Tension ([1]; 0.1 wt % in water, 6 b/s): 28.7 dyne/cm
Dynamic Surface Tension ([1]; 0.1 wt % in water, 15 b/s): 34.4 dyne/cm
solubility limit [2]: 0.1 wt %
SMILES: CCCCCCCCNC=O [n-OF, n-octylformamide]

Dynamic Surface Tension ([1]; 0.03 wt % in water, 0.1 b/s): 51.1 dyne/cm
Dynamic Surface Tension ([1]; 0.03 wt % in water, 1 b/s): 53.0 dyne/cm
Dynamic Surface Tension ([1]; 0.03 wt % in water, 6 b/s): 57.0 dyne/cm
Dynamic Surface Tension ([1]; 0.03 wt % in water, 15 b/s): 60.1 dyne/cm
Dynamic Surface Tension ([1]; 0.03 wt % in water, 20 b/s): 60.3 dyne/cm
Dynamic Surface Tension ([1]; 0.05 wt % in water, 0.1 b/s): 45.9 dyne/cm
Dynamic Surface Tension ([1]; 0.05 wt % in water, 1 b/s): 47.2 dyne/cm
Dynamic Surface Tension ([1]; 0.05 wt % in water, 6 b/s): 49.9 dyne/cm
Dynamic Surface Tension ([1]; 0.05 wt % in water, 15 b/s): 52.6 dyne/cm
Dynamic Surface Tension ([1]; 0.05 wt % in water, 20 b/s): 53.3 dyne/cm
Dynamic Surface Tension ([1]; 0.07 wt % in water, 0.1 b/s): 42.8 dyne/cm
Dynamic Surface Tension ([1]; 0.07 wt % in water, 1 b/s): 43.8 dyne/cm
Dynamic Surface Tension ([1]; 0.07 wt % in water, 6 b/s): 46.0 dyne/cm
Dynamic Surface Tension ([1]; 0.07 wt % in water, 15 b/s): 48.3 dyne/cm
Dynamic Surface Tension ([1]; 0.07 wt % in water, 20 b/s): 49.1 dyne/cm
Dynamic Surface Tension ([1]; 0.1 wt % in water, 0.1 b/s): 39.1 dyne/cm
Dynamic Surface Tension ([1]; 0.1 wt % in water, 1 b/s): 39.9 dyne/cm
Dynamic Surface Tension ([1]; 0.1 wt % in water, 6 b/s): 41.6 dyne/cm
Dynamic Surface Tension ([1]; 0.1 wt % in water, 15 b/s): 43.5 dyne/cm
Dynamic Surface Tension ([1]; 0.1 wt % in water, 20 b/s): 44.2 dyne/cm
Dynamic Surface Tension ([1]; 0.2 wt % in water, 0.1 b/s): 32.1 dyne/cm
Dynamic Surface Tension ([1]; 0.2 wt % in water, 1 b/s): 32.4 dyne/cm
Dynamic Surface Tension ([1]; 0.2 wt % in water, 6 b/s): 33.3 dyne/cm
Dynamic Surface Tension ([1]; 0.2 wt % in water, 15 b/s): 34.9 dyne/cm
Dynamic Surface Tension ([1]; 0.2 wt % in water, 20 b/s): 35.5 dyne/cm
solubility limit [2]: 0.2 wt %
SMILES: CCCCC(CC)CNC=O (stereo not drawn) [2-EHF, 2-ethylhexylformamide]

Initial Foam Height ([3]; 0.1 wt % solution): 0.5 cm
Time to 0 Foam ([3]; 0.1 wt % solution): 4 s
SMILES: CCCCC(CC)CNC=O (stereo not drawn) [drawing 14, 2-ethylhexylformamide]

Dynamic Surface Tension ([1]; 0.005 wt % in water, 0.1 b/s): 53.4 dyne/cm
Dynamic Surface Tension ([1]; 0.005 wt % in water, 1 b/s): 67.1 dyne/cm
Dynamic Surface Tension ([1]; 0.005 wt % in water, 6 b/s): 70.6 dyne/cm
Dynamic Surface Tension ([1]; 0.005 wt % in water, 15 b/s): 72.5 dyne/cm
Dynamic Surface Tension ([1]; 0.005 wt % in water, 20 b/s): 73.1 dyne/cm
Dynamic Surface Tension ([1]; 0.007 wt % in water, 0.1 b/s): 36.3 dyne/cm
Dynamic Surface Tension ([1]; 0.007 wt % in water, 1 b/s): 59.2 dyne/cm
Dynamic Surface Tension ([1]; 0.007 wt % in water, 6 b/s): 70.3 dyne/cm
Dynamic Surface Tension ([1]; 0.007 wt % in water, 15 b/s): 72.3 dyne/cm
Dynamic Surface Tension ([1]; 0.007 wt % in water, 20 b/s): 72.9 dyne/cm
Dynamic Surface Tension ([1]; 0.01 wt % in water, 0.1 b/s): 32.4 dyne/cm
Dynamic Surface Tension ([1]; 0.01 wt % in water, 1 b/s): 55.4 dyne/cm
Dynamic Surface Tension ([1]; 0.01 wt % in water, 6 b/s): 69.1 dyne/cm
Dynamic Surface Tension ([1]; 0.01 wt % in water, 15 b/s): 72.5 dyne/cm
Dynamic Surface Tension ([1]; 0.01 wt % in water, 20 b/s): 72.8 dyne/cm
solubility limit [2]: 0.01 wt %
SMILES: CCCCCCCCCCNC=O [n-DF, n-decylformamide]

Initial Foam Height ([3]; 0.1 wt % solution): 0.9 cm
Time to 0 Foam ([3]; 0.1 wt % solution): 5 s
SMILES: CCCCCCCCNC=O [drawing 13, n-octylformamide]

Dynamic Surface Tension ([1]; 0.1 wt % in water, 0.1 b/s (Table 4)): 56.0 dynes/cm
Dynamic Surface Tension ([1]; 0.1 wt % in water, 1 b/s (Table 4)): 57.6 dynes/cm
Dynamic Surface Tension ([1]; 0.1 wt % in water, 6 b/s (Table 4)): 58.8 dynes/cm
Dynamic Surface Tension ([1]; 0.1 wt % in water, 15 b/s (Table 4)): 60.3 dynes/cm
Dynamic Surface Tension ([1]; 0.1 wt % in water, 20 b/s (Table 4)): 60.6 dynes/cm
Dynamic Surface Tension ([1]; 0.5 wt % in water, 0.1 b/s): 37.2 dynes/cm
Dynamic Surface Tension ([1]; 0.5 wt % in water, 1 b/s): 38.0 dynes/cm
Dynamic Surface Tension ([1]; 0.5 wt % in water, 6 b/s): 38.8 dynes/cm
Dynamic Surface Tension ([1]; 0.5 wt % in water, 15 b/s): 40.1 dynes/cm
Dynamic Surface Tension ([1]; 0.5 wt % in water, 20 b/s): 40.3 dynes/cm
Dynamic Surface Tension ([1]; 1.0 wt % in water, 0.1 b/s): 28.4 dynes/cm
Dynamic Surface Tension ([1]; 1.0 wt % in water, 1 b/s): 29.0 dynes/cm
Dynamic Surface Tension ([1]; 1.0 wt % in water, 6 b/s): 29.6 dynes/cm
Dynamic Surface Tension ([1]; 1.0 wt % in water, 15 b/s): 30.1 dynes/cm
Dynamic Surface Tension ([1]; 1.0 wt % in water, 20 b/s): 31.1 dynes/cm
surface tension ([1]; 1.0 wt % solution, 20 b/s): 31.1 dyne/cm
Dynamic Surface Tension ([1]; 2.0 wt % in water, 0.1 b/s): 27.4 dynes/cm
Dynamic Surface Tension ([1]; 2.0 wt % in water, 1 b/s): 28.4 dynes/cm
Dynamic Surface Tension ([1]; 2.0 wt % in water, 6 b/s): 29.3 dynes/cm
Dynamic Surface Tension ([1]; 2.0 wt % in water, 15 b/s): 30.7 dynes/cm
Dynamic Surface Tension ([1]; 2.0 wt % in water, 20 b/s): 30.3 dynes/cm
foaming of aqueous solutions (in words) [3]: almost no foam
solubility limit [2]: 1.1 wt %
SMILES: CCCCCCNC=O [n-HF, n-hexylformamide]

Dynamic Surface Tension ([1]; 0.003 wt % in water, 0.1 b/s): 65.1 dyne/cm
Dynamic Surface Tension ([1]; 0.003 wt % in water, 1 b/s): 68.6 dyne/cm
Dynamic Surface Tension ([1]; 0.003 wt % in water, 6 b/s): 70.8 dyne/cm
Dynamic Surface Tension ([1]; 0.003 wt % in water, 15 b/s): 71.4 dyne/cm
Dynamic Surface Tension ([1]; 0.003 wt % in water, 20 b/s): 71.1 dyne/cm
Dynamic Surface Tension ([1]; 0.03 wt % in water, 0.1 b/s): 46.5 dyne/cm
Dynamic Surface Tension ([1]; 0.03 wt % in water, 1 b/s): 49.3 dyne/cm
Dynamic Surface Tension ([1]; 0.03 wt % in water, 6 b/s): 54.4 dyne/cm
Dynamic Surface Tension ([1]; 0.03 wt % in water, 15 b/s): 58.7 dyne/cm
Dynamic Surface Tension ([1]; 0.03 wt % in water, 20 b/s): 59.6 dyne/cm
Dynamic Surface Tension ([1]; 0.07 wt % in water, 0.1 b/s): 35.2 dyne/cm
Dynamic Surface Tension ([1]; 0.07 wt % in water, 1 b/s): 36.6 dyne/cm
Dynamic Surface Tension ([1]; 0.07 wt % in water, 6 b/s): 39.6 dyne/cm
Dynamic Surface Tension ([1]; 0.07 wt % in water, 15 b/s): 43.0 dyne/cm
Dynamic Surface Tension ([1]; 0.07 wt % in water, 20 b/s): 43.9 dyne/cm
Dynamic Surface Tension ([1]; 0.1 wt % in water, 0.1 b/s): 29.9 dyne/cm
Dynamic Surface Tension ([1]; 0.1 wt % in water, 1 b/s): 31.0 dyne/cm
Dynamic Surface Tension ([1]; 0.1 wt % in water, 1 b/s, listed as n-octylpyrrolidone): below 30 dyne/cm
Dynamic Surface Tension ([1]; 0.1 wt % in water, 6 b/s): 33.4 dyne/cm
Dynamic Surface Tension ([1]; 0.1 wt % in water, 15 b/s): 36.5 dyne/cm
Dynamic Surface Tension ([1]; 0.1 wt % in water, 20 b/s): 37.2 dyne/cm
Dynamic Surface Tension ([1]; 0.1 wt % in water, 20 b/s, listed as n-octylpyrrolidone): below 40 dyne/cm
Dynamic Surface Tension ([1]; 0.21 wt % in water, 0.1 b/s): 27.6 dyne/cm
Dynamic Surface Tension ([1]; 0.21 wt % in water, 1 b/s): 27.8 dyne/cm
Dynamic Surface Tension ([1]; 0.21 wt % in water, 6 b/s): 28.4 dyne/cm
Dynamic Surface Tension ([1]; 0.21 wt % in water, 15 b/s): 30.0 dyne/cm
Dynamic Surface Tension ([1]; 0.21 wt % in water, 20 b/s): 30.6 dyne/cm
Initial Foam Height ([3]; 0.1 wt % solution): 4.0 cm
cm Foam after 5 min ([3]; 0.1 wt % solution): 1.0 cm
foaming of aqueous solutions (in words) [3]: quite foamy
SMILES: CCCCCCCCN1CCCC1=O [N-n-Octylpyrrolidone, reference compound]

Initial Foam Height ([3]; 0.1 wt % solution): 2.4 cm
Time to 0 Foam ([3]; 0.1 wt % solution): 12 s
SMILES: CCCCCCCCCCNC=O [drawing 16, n-decylformamide]
